In patent US10793580B2, “Substituted pyrazoloazepin-8-ones and their use as phosphodiesterase inhibitors” (LEO Pharma A/S, priority 2016, dated 2020) one finds IC50 data, which are given here for 29 compounds.

Where only a bound is given, the exact number is not on record here.

In one assay the target is human PDE4D catalytic domain (Homo sapiens (Human), UniProt Q08499). In words: PDE4 Assay (TR-FRET, FAM-cAMP cleavage). Type of assay: biochemical. To be noted: Table 16, Examples 277-296; read-out: PDE4 IC50 range. In outline: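 Readout is Tb-to-FAM time-resolved FRET after nanoparticle capture of AMP, the product of cleaving a cAMP/FAM-cAMP mixture by PDE4D catalytic domain (S380-L740) in the presence of titrated compound. Values are IC50 ranges in nM: concentration halving substrate cleavage relative to controls.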
Sequence of human PDE4D catalytic domain (Q08499 380-740): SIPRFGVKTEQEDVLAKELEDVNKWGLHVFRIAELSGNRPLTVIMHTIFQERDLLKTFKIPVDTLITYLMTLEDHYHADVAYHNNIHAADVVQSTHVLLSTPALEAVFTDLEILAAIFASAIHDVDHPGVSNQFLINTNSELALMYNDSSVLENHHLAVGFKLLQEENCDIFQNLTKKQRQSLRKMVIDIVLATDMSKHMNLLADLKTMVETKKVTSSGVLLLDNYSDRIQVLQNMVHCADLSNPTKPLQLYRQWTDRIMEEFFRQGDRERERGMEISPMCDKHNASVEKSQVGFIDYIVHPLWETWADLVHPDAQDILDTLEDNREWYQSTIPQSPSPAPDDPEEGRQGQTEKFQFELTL
On the technique in general: In TR-FRET formats the signal depends on donor and acceptor labels being close together.
Consider `CCn1nc(C[C@@H](C)COC(=O)c2cc(C)n(C)n2)c2c1C(=O)NCC1(CCOCC1)C2` [Example 289, [(2R)-3-(1-ethyl-8-oxo-spiro[6,7-dihydro-4H-pyrazolo[3,4-c]azepine-5,4′-tetrahydropyran]-3-yl)-2-methyl-propyl] 1,5-dimethylpyrazole-3-carboxylate], for which the IC50 was under 0.1 µM.

On to `CCn1nc(C[C@@H](C)COC(=O)c2cnsc2)c2c1C(=O)NCC1(CCOCC1)C2` [Example 284, [(2R)-3-(1-ethyl-8-oxo-spiro[6,7-dihydro-4H-pyrazolo[3,4-c]azepine-5,4′-tetrahydropyran]-3-yl)-2-methyl-propyl] isothiazole-4-carboxylate], for which the IC50 is under 0.1 µM.

`CCn1nc(C[C@@H](C)COC(=O)C2CCN(C(=O)OC)CC2)c2c1C(=O)NCC1(CCOCC1)C2` [Example 295, [(2R)-3-(1-ethyl-8-oxo-spiro[6,7-dihydro-4H-pyrazolo-[3,4-c]azepine-5,4′-tetrahydro-pyran]-3-yl)-2-methyl-propyl] 1-methoxycarbonylpiperidine-4-carboxylate]: the concentration for half-maximal inhibition (IC50) was under 0.1 µM.

Consider `CCn1nc(C[C@@H](C)COC(=O)c2coc(C)n2)c2c1C(=O)NCC1(CCOCC1)C2` [Example 281, [(2R)-3-(1-ethyl-8-oxo-spiro[6,7-dihydro-4H-pyrazolo[3,4-c]azepine-5,4′-tetrahydropyran]-3-yl)-2-methyl-propyl] 2-methyloxazole-4-carboxylate], for which the concentration for half-maximal inhibition (IC50) was under 0.1 µM.

For the compound `CCn1nc(C[C@@H](C)COC(=O)C2CCN(C(C)=O)CC2)c2c1C(=O)NCC1(CCOCC1)C2` [Example 294, [(2R)-3-(1-ethyl-8-oxo-spiro[6,7-dihydro-4H-pyrazolo[3,4-c]azepine-5,4′-tetrahydropyran]-3-yl)-2-methyl-propyl] 1-acetylpiperidine-4-carboxylate], the IC50 was under 0.1 µM.

The assay is the same for the next values; noted with them: Table 17, Examples 297-316; read-out: PDE4 IC50 range.
Consider `CCn1nc(CC(C)(C)COC(=O)c2cnn(C)c2)c2c1C(=O)NCC1(CCOCC1)C2` [Example 299, [3-(1-ethyl-8-oxo-spiro[6,7-dihydro-4H-pyrazolo[3,4-c]azepine-5,4′-tetrahydropyran]-3-yl)-2,2-dimethyl-propyl] 1-methylpyrazole-4-carboxylate], for which the IC50 is under 0.1 µM.

Consider `CCn1nc(CC(C)(C)COC(=O)c2coc(C)n2)c2c1C(=O)NCC1(CCOCC1)C2` [Example 301, [3-(1-ethyl-8-oxo-spiro[6,7-dihydro-4H-pyrazolo[3,4-c]azepine-5,4′-tetrahydropyran]-3-yl)-2,2-dimethyl-propyl] 2-methyloxazole-4-carboxylate], for which the half-inhibitory concentration (IC50) is under 0.1 µM.

Still in this assay, the particulars now being: human PDE4D catalytic domain (UniProt Q08499 [S380-L740]); 50% inhibition of substrate cleavage; read-out: PDE4 IC50 range.
Consider `CCn1nc(CCCOC(=O)c2ccc(C)cc2Cl)c2c1C(=O)NCC1(CCOCC1)C2` [Example 42, 3-(1-ethyl-8-oxo-spiro[6,7-dihydro-4H-pyrazolo[3,4-c]azepine-5,4′-tetrahydropyran]-3-yl)propyl 2-chloro-4-methyl-benzoate], for which the IC50 is under 0.1 µM.

As for `CCn1nc(CCCCOC(=O)c2ccc(F)cc2)c2c1C(=O)NCC1(CCOCC1)C2` [Example 124, 4-(1-ethyl-8-oxo-spiro[6,7-dihydro-4H-pyrazolo[3,4-c]azepine-5,4′-tetrahydropyran]-3-yl)butyl 4-fluorobenzoate], the concentration for half-maximal inhibition (IC50) was under 0.1 µM.

Turning to `CCn1nc(CCCOC(=O)c2cccc(OC)c2Cl)c2c1C(=O)NCC1(CCOCC1)C2` [Example 57, 3-(1-ethyl-8-oxo-spiro[6,7-dihydro-4H-pyrazolo[3,4-c]azepine-5,4′-tetrahydropyran]-3-yl)propyl 2-chloro-3-methoxy-benzoate], the half-inhibitory concentration (IC50) is under 0.1 µM.

Turning to `CCn1nc(C[C@@H](C)COC(=O)c2cccc(C(=O)NC)c2)c2c1C(=O)NCC1(CCOCC1)C2` [Example 179, [(2R)-3-(1-ethyl-8-oxo-spiro[6,7-dihydro-4H-pyrazolo[3,4-c]azepine-5,4′-tetrahydropyran]-3-yl)-2-methyl-propyl] 3-(methylcarbamoyl)benzoate], the IC50 is under 0.1 µM.

For the compound `CCn1nc(CCCCOC(=O)c2ccc(C(N)=O)cc2)c2c1C(=O)NCC1(CCOCC1)C2` [Example 127, 4-(1-ethyl-8-oxo-spiro[6,7-dihydro-4H-pyrazolo[3,4-c]azepine-5,4′-tetrahydropyran]-3-yl)butyl 4-carbamoylbenzoate], the IC50 was under 0.1 µM.

In the case of `CCn1nc(CCCOC(=O)c2cc(Cl)ccc2C)c2c1C(=O)NCC1(CCOCC1)C2` [Example 44, 3-(1-ethyl-8-oxo-spiro[6,7-dihydro-4H-pyrazolo[3,4-c]azepine-5,4′-tetrahydropyran]-3-yl)propyl 5-chloro-2-methyl-benzoate], the IC50 is under 0.1 µM.

Turning to `CCn1nc(C[C@@H](C)COC(=O)c2ccccc2C)c2c1C(=O)NCC1(CCOCC1)C2` [Example 141, [(2R)-3-(1-ethyl-8-oxo-spiro[6,7-dihydro-4H-pyrazolo[3,4-c]azepine-5,4′-tetrahydropyran]-3-yl)-2-methyl-propyl] 2-methylbenzoate], the concentration for half-maximal inhibition (IC50) is under 0.1 µM.

Consider `CCn1nc(CC(C)(C)COC(=O)c2cccc(C)c2)c2c1C(=O)NCC1(CCOCC1)C2` [Example 190, [3-(1-ethyl-8-oxo-spiro[6,7-dihydro-4H-pyrazolo[3,4-c]azepine-5,4′-tetrahydropyran]-3-yl)-2,2-dimethyl-propyl] 3-methylbenzoate], for which the IC50 was under 0.1 µM.

`CCn1nc(CCCOC(=O)c2cc(Cl)ccc2OC)c2c1C(=O)NCC1(CCOCC1)C2` [Example 60, 3-(1-ethyl-8-oxo-spiro[6,7-dihydro-4H-pyrazolo[3,4-c]azepine-5,4′-tetrahydropyran]-3-yl)propyl 5-chloro-2-methoxy-benzoate]: the concentration for half-maximal inhibition (IC50) was under 0.1 µM.

As for `CCn1nc(CCCOC(=O)c2ccc(C)cc2OC)c2c1C(=O)NCC1(CCOCC1)C2` [Example 34, 3-(1-ethyl-8-oxo-spiro[6,7-dihydro-4H-pyrazolo[3,4-c]azepine-5,4′-tetrahydropyran]-3-yl)propyl 2-methoxy-4-methyl-benzoate], the concentration for half-maximal inhibition (IC50) was under 0.1 µM.

Take `CCn1nc(CCCCOC(=O)C2CCOCC2)c2c1C(=O)NCC1(CCOCC1)C2` [Example 270, 4-(1-ethyl-8-oxo-spiro[6,7-dihydro-4H-pyrazolo[3,4-c]azepine-5,4′-tetrahydropyran]-3-yl)butyl tetrahydropyran-4-carboxylate]: the concentration for half-maximal inhibition (IC50) is under 0.1 µM.

For `CCn1nc(CCCOC(=O)c2ccc(S(C)(=O)=O)cc2)c2c1C(=O)NCC1(CCOCC1)C2` [Example 3, 3-(1-Ethyl-8-oxo-spiro[6,7-dihydro-4H-pyrazolo[3,4-c]azepine-5,4′-tetrahydropyran]-3-yl)propyl 4-methylsulfonylbenzoate], the IC50 is under 0.1 µM.

As to `CCn1nc(CCCOC(=O)c2ccc(F)cc2OC)c2c1C(=O)NCC1(CCOCC1)C2` [Example 40, 3-(1-ethyl-8-oxo-spiro[6,7-dihydro-4H-pyrazolo[3,4-c]azepine-5,4′-tetrahydropyran]-3-yl)propyl 4-fluoro-2-methoxy-benzoate], the concentration for half-maximal inhibition (IC50) was under 0.1 µM.

Regarding `CCn1nc(CCCOC(=O)c2cc(C(F)(F)F)ccc2F)c2c1C(=O)NCC1(CCOCC1)C2` [Example 73, 3-(1-ethyl-8-oxo-spiro[6,7-dihydro-4H-pyrazolo[3,4-c]azepine-5,4′-tetrahydro-pyran]-3-yl)propyl 2-fluoro-5-(trifluoromethyl)benzoate], the IC50 was under 0.1 µM.

As for `CCn1nc(CCCOC(=O)C2CCN(C)CC2)c2c1C(=O)NCC1(CCOCC1)C2` [Example 256, 3-(1-ethyl-8-oxo-spiro[6,7-dihydro-4H-pyrazolo[3,4-c]azepine-5,4′-tetrahydropyran]-3-yl)propyl 1-methylpiperidine-4-carboxylate], the IC50 lay in the range of 0.1 to 0.5 µM.

As to `CCn1nc(CCCOC(=O)c2cccc(F)c2)c2c1C(=O)NCC1(CCOCC1)C2` [Example 9, 3-(1-ethyl-8-oxo-spiro[6,7-dihydro-4H-pyrazolo[3,4-c]azepine-5,4′-tetrahydropyran]-3-yl)propyl 3-fluorobenzoate], the IC50 is under 0.1 µM.

Consider `CCn1nc(CCCOC(=O)c2cc(OC)ccc2C(F)(F)F)c2c1C(=O)NCC1(CCOCC1)C2` [Example 80, 3-(1-ethyl-8-oxo-spiro[6,7-dihydro-4H-pyrazolo[3,4-c]azepine-5,4′-tetrahydro-pyran]-3-yl)propyl 5-methoxy-2-(trifluoromethyl)benzoate], for which the IC50 is under 0.1 µM.

`CCn1nc(CCCOC(=O)c2cccc(Cl)c2OC)c2c1C(=O)NCC1(CCOCC1)C2` [Example 59, 3-(1-ethyl-8-oxo-spiro[6,7-dihydro-4H-pyrazolo[3,4-c]azepine-5,4′-tetrahydropyran]-3-yl)propyl 3-chloro-2-methoxy-benzoate]: the IC50 was under 0.1 µM.

As for `CCn1nc(C[C@@H](C)COC(=O)c2ccc(S(=O)(=O)NC)cc2)c2c1C(=O)NCC1(CCOCC1)C2` [Example 158, [(2R)-3-(1-ethyl-8-oxo-spiro[6,7-dihydro-4H-pyrazolo[3,4-c]azepine-5,4′-tetrahydropyran]-3-yl)-2-methyl-propyl] 4-(methylsulfamoyl)benzoate], the IC50 was under 0.1 µM.

With `CCn1nc(CCCOC(=O)c2cc(C(F)(F)F)ccc2Cl)c2c1C(=O)NCC1(CCOCC1)C2` [Example 91, 3-(1-ethyl-8-oxo-spiro[6,7-dihydro-4H-pyrazolo[3,4-c]azepine-5,4′-tetrahydro-pyran]-3-yl)propyl 2-chloro-5-(trifluoromethyl)benzoate], the concentration for half-maximal inhibition (IC50) was under 0.1 µM.

`CCn1nc(CCCOC(=O)c2ccc(C(N)=O)cc2)c2c1C(=O)NCC1(CCOCC1)C2` [Example 104, 3-(1-ethyl-8-oxo-spiro[6,7-dihydro-4H-pyrazolo[3,4-c]azepine-5,4′-tetrahydropyran]-3-yl)propyl 4-carbamoylbenzoate]: the IC50 is under 0.1 µM.

Regarding `CCn1nc(CCCOC(=O)c2cnc(C)s2)c2c1C(=O)NCC1(CCOCC1)C2` [Example 255, 3-(1-ethyl-8-oxo-spiro[6,7-dihydro-4H-pyrazolo[3,4-c]azepine-5,4′-tetrahydropyran]-3-yl)propyl 2-methylthiazole-5-carboxylate], the IC50 was under 0.1 µM.

By IC50 is commonly meant the concentration needed to halve the response being measured.
